Measured values published in PubChem BioAssay (NCI).
Where “and” joins values, the source holds several entries; their conditions need not be identical. Identical values can stand only once.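 These data come from cells grown in 96-well plates and exposed to compound for 48 hours at five concentrations. GI50 marks 50% less growth. TGI is the concentration that stops growth completely.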

Legend:
Experiment in all cases: NCI anticancer screen, dose series, 48 h
RPMI-8226 leukemia = test system: RPMI-8226 leukemia
M14 melanoma = test system: M14 melanoma
CCRF-CEM leukemia = test system: CCRF-CEM leukemia
EKVX NSCLC = test system: EKVX NSCLC
SNB-75 CNS = test system: SNB-75 CNS
SK-MEL-28 melanoma = test system: SK-MEL-28 melanoma
OVCAR-4 ovarian = test system: OVCAR-4 ovarian
NCI-H226 lung = test system: NCI-H226 lung
UACC-62 melanoma = test system: UACC-62 melanoma
786-0 renal = test system: 786-0 renal
SNB-19 CNS = test system: SNB-19 CNS
T-47D breast = test system: T-47D breast
DU-145 prostate = test system: DU-145 prostate

SMILES	TGI (RPMI-8226 leukemia) [µM]	TGI (M14 melanoma) [µM]	TGI (CCRF-CEM leukemia) [µM]	TGI (EKVX NSCLC) [µM]	TGI (SNB-75 CNS) [µM]	TGI (SK-MEL-28 melanoma) [µM]	TGI (OVCAR-4 ovarian) [µM]	TGI (NCI-H226 lung) [µM]	TGI (UACC-62 melanoma) [µM]	TGI (786-0 renal) [µM]	TGI (SNB-19 CNS) [µM]	TGI (T-47D breast) [µM]	TGI (DU-145 prostate) [µM]	GI50 (RPMI-8226 leukemia) [nM]	GI50 (CCRF-CEM leukemia)	GI50 (SNB-75 CNS) [nM]	GI50 (NCI-H226 lung) [nM]	GI50 (UACC-62 melanoma) [nM]
CCOC(=O)/C=C/c1ccccn1	> 100	> 100	> 100	> 100	> 100	> 100	> 100	> 100	> 100	> 100	–	–	–	–	–	–	–	–
O=C(CSc1nnc(-c2ccc(N=Cc3ccc(Cl)cc3)cc2)o1)Nc1cccc(Cl)c1	> 100	> 100	> 100	> 100	> 100	> 100	> 100	> 100	> 100	> 100	> 100	–	–	–	–	–	–	–
CC(=O)NC(CCCCNC(=O)N(C)N=O)C(=O)NCc1ccccc1 (stereo not drawn)	> 100	> 100	> 100	> 100	> 100	> 100	> 100	> 100	> 100	> 100	> 100	–	–	–	–	–	–	–
CN(C)/C=N/c1nc2ncn(CCOC(=O)c3ccccc3)c2c(=O)[nH]1	> 100	> 100	> 100	> 100	> 100	> 100	> 100	> 100	> 100	> 100	–	–	–	–	–	–	–	–
S=C(Nc1ccccc1)N1N=C2c3ccccc3CC[C@H]2[C@@H]1c1ccccc1	> 100	> 100	–	> 100	–	> 100	> 100	> 100	> 100	> 100	> 100	–	–	–	–	–	–	–
CCCCCCCC/C=C/CCCCCCCC1CC(O)C(=O)O1 (stereo not drawn)	76.7	> 100	> 100	> 100	> 100	> 100	> 100	> 100	> 100	> 100	> 100	> 100	> 100	–	–	–	–	–
COc1cc([C@@H]2c3cc4c(c(O)c3C[C@H]3COC(=O)[C@@H]32)OCO4)cc(OC)c1O	49.1	–	> 35.6	> 92.8	> 78.6	> 200	> 200	–	> 200	–	> 200	–	–	4.1	3.37 nM and 20 nM	4.21	5.62	4.54
C[C@@H]1OC(=O)/C(=C\N(C)C)[C@H]2CC(=O)N(CCc3cn(S(=O)(=O)C(F)(F)F)c4ccccc34)C[C@H]12	> 100	> 100	–	> 100	> 100	> 100	> 100	> 100	–	> 100	> 100	> 100	–	–	–	–	–	–
CC(C)(C)NC1C2CCC(C)(C1O)C2(C)C (stereo not drawn)	> 100	> 100	–	> 100	26.2	> 100	> 100	–	12.5	> 100	> 100	> 100	> 100	–	–	–	–	–
